Entries after “also recorded” stand apart in the source; their conditions may differ.
Test system: WSU-DLCL2 xenograft
Assay: DLBCL xenograft model (WSU-DLCL2)
Type: in vivo, SCID mice
Details: combination study
Experimental: Severe combined immunodeficiency (SCID) mice were implanted with human DLBCL cell line (WSU-DLCL2) into the flank. Treatment of compounds started between Day 11 and Day 14 after cell inoculation. Randomized groups of mice (n=9 to 10/group) were treated with the single agents (Compound 1, Compound A or Compound AA) or the combination of Compound 1/Compound A, Compound A/Compound AA, or Compound 1/Compound AA. Compounds were administered orally on a once daily (Compound 1 and Compound A) or twice daily […] schedule for 21 days. The positive control consisted of CHOP therapy (combination of cyclophosphamide, doxorubicin, vincristine and prednisone). Compound 1 and Compound A were formulated in CMC-Tween (carboxymethylcellulose/Tween 80/deionized water). Compound AA was suspended in DSP (dimethylsulphoxide/solutol/phosphate buffered saline).
Initial studies were conducted in order to determine the antitumor activity of Compound 1 and to identify a dose level for the combination studies. In the WSU-DLCL2 xenograft model, Compound 1 inhibited tumor growth in a dose-dependent fashion. […] In a subsequent combination study, Compound 1 was dosed at 10 mg/kg, once daily (QD). Compound A and Compound AA were dosed at 30 mg/kg (QD) and 50 mg/kg (BID), respectively.

Structure (SMILES): C=CC(=O)Nc1cccc(Nc2nc(Nc3ccc(OCCOC)cc3)ncc2F)c1 [Compound AA, N-(3-(5-fluoro-2-(4-(2-methoxyethoxy)phenylamino)pyrimidin-4-ylamino)phenyl)acrylamide]
- antitumor activity (Day 34, Compound 1 10 mg/kg QD, Compound A 30 mg/kg QD, Compound AA 50 mg/kg BID, combinations compared with single agent): No significant antitumor activity; also recorded: inactive
- body weight loss (single agents or in combination): No significant body weight loss

Reference: patent publication US9474757B2, “Methods for treating cancer using TOR kinase inhibitor combination therapy” (Signal Pharmaceuticals, LLC, priority 2013, dated 2016)
